Data: US20230094922A1, “METHODS OF THERAPEUTIC PROGNOSTICATION” (GENETIKAPLUS LTD., priority 2020, published 2023)

Columns and labels:
[1] = test system: iPSC-derived cortical neurons; assay: Dendritic arborization analysis (dendrite length), confocal imaging; format: cell-based, human
Experimental: FIG. 7. Analysis of dendritic arborization. Dendritic arborization was analyzed using confocal microscopy in samples treated with Bupropion. Images for dendritic arborization were acquired with a 20× objective in z-stacks and analyzed using Neurolucida software. iPSC differentiation into neurons-iPSCs were seeded at a density of 3×10^6 cells/well on a hESC-qualified Matrigel pre-coated 6-well plate and incubated at 37° C., 5% CO2 overnight. Differentiation was initiated the following day (day 0) after verifying that 100% confluency was reached. Differentiation media was added daily according to the following order: […]7 (day 15 onward) similar to a previously published protocol developed by for rapid differentiation to cortical neurons. The components of the described media, Q1-7, are provided in Appendix 1. Cells were assessed for differentiation efficiency and cell death on a daily basis. […] Neuronal and synaptic morphology was assessed using the Neurolucida software, pre- and post-synaptic marker analysis was performed using CellProfiler and total dendritic length was measured using Fiji software.

[2] = test system: iPSC-derived cortical neurons; assay: Dendritic spine length analysis, confocal imaging; format: cell-based, human
Experimental: FIG. 8. Average dendritic spine length. Dendritic spine length was analyzed using confocal microscopy in samples treated with Bupropion. For imaging of dendritic spines, images were acquired using the Nikon Confocal A1R with a 60× objective and a 2× digital zoom in z-stacks. Analysis was performed using Neurolucida software. FIGS. 9A-9B. Average dendritic spine length in specific spine types. […] For imaging of dendritic spines, images were acquired using the Nikon Confocal A1R with a 60× objective and a 2× digital zoom in z-stacks. Analysis was performed using Neurolucida software. iPSC differentiation into neurons-iPSCs were seeded at a density of 3×10^6 cells/well on a hESC-qualified Matrigel pre-coated 6-well plate and incubated at 37° C., 5% CO2 overnight. Differentiation was initiated the following day (day 0) after verifying that 100% confluency was reached. Differentiation media was added daily according to the following order: […]7 (day 15 onward) similar to a previously published protocol developed by for rapid differentiation to cortical neurons. The components of the described media, Q1-7, are provided in Appendix 1. Cells were assessed for differentiation efficiency and cell death on a daily basis. On day 9, differentiated neurons were re-plated on either 96-well plates (destined for staining) or 12-well plates (destined for RNA extraction) that were coated with 15 μg/mL Poly-ornithine diluted in PBS (overnight incubation at 37° C.), followed by 1 μg/mL Laminin and 2 μg/mL Fibronectin diluted in PBS (overnight incubation at 37° C.): Neurons were first rinsed with pre-warmed PBS and 1 ml/well of Accutase was added for 35 minutes at 37° C., 5% CO2. DNAse1 (0.5 mg/mL) was then added for 10 additional minutes. 3 ml of pre-warmed Neurobasal media was added to each well and neurons were gently collected using a 5 ml […]. Wells were then verified for the presence of any remaining neurons. Neurons were spun down and resuspended in Q6 media. Neurons were seeded at a density of 150,000 cells/cm^2 placed back at 37° C. Following four hours of incubation, media was changed to Q6 media (150 μl per 96-well and 1 ml per 12-well). […] For dendritic arborization analysis, pre/post-synaptic markers and colocalization analysis; α-Syn, PSD95 and MAP2 primary antibodies were used. Following washes, fluorophore-coupled secondary antibodies were incubated in the blocking solution for 1 hour at room temperature. The cells were counter-stained with 4',6-diamidino-2-phenylindole (DAPI) for nuclei detection for 15 minutes at room temperature followed by washes with PBS. […] Neuronal and synaptic morphology was assessed using the Neurolucida software, pre- and post-synaptic marker analysis was performed using CellProfiler and total dendritic length was measured using Fiji software.

[3] = cells derived from non-responders

In the case of CC(NC(C)(C)C)C(=O)c1cccc(Cl)c1 (stereo not drawn) [Bupropion, 3-Chloro-N-tert-butyl-β-keto-α-methylphenethylamin], the “dendritic length, effect of treatment (significant decrease or not)” value [1, 3] is reported as “did not”, the “dendritic length, effect of treatment” value ([1]; neurons derived from responders) is reported as “significant decrease in dendritic length” and the “total dendritic spine length (average), after treatment” value [2, 3] is reported as “no difference”. For the same compound, the “total dendritic spine length (average), after treatment” value ([2]; cells derived from responders) was “significant increase”, the “specific spine types (mushroom, stubby, filopodia, thin), after treatment” value ([2]; cells from non-responders) was “increase in the number of stubby spines” and the “specific spine types (mushroom, stubby, filopodia, thin), after treatment” value ([2]; responder's cells) was “significant increase in the number of mushroom, stubby and thin spines”.
